Measurements as given in ChEMBL document CHEMBL4261488, “Do GluN2B subunit containing NMDA receptors tolerate a fluorine atom in the phenylalkyl side chain?” (Medchemcomm, 2017).

Experiments:
[1] = target: Glutamate receptor ionotropic, NMDA 2B (Homo sapiens, UniProt Q13224); assay: Displacement of [3H]-ifenprodil from GluN2B receptor (unknown origin) expressed in mouse L (tk-) cell membranes after 120 mins by scintillation counting method
[2] = target: Sigma non-opioid intracellular receptor 1 (Cavia porcellus, UniProt Q60492); type: cell membranes, Brain, Membrane
Sigma non-opioid intracellular receptor 1, sequence (Q60492 whole entry): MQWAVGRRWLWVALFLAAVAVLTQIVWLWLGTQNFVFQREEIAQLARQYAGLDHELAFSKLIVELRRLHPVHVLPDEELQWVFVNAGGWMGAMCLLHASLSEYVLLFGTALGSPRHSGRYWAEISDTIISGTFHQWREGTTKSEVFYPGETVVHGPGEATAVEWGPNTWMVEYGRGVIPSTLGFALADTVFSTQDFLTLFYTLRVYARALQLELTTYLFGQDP

[3] = organism: Sus scrofa; assay: Displacement of [3H]-(+)-MK-801 from PCP binding site of NMDA receptor in pig brain cortex membranes at 1 uM after 90 mins by scintillation counting method relative to control; type: cell membranes
[4] = Displacement of [3H]-di-o-tolylguanidine from sigma 2 receptor in rat liver membranes after 120 mins by scintillation counting analysis; type: cell membranes, Membrane

Glutamate receptor ionotropic, NMDA 2B, sequence (Q13224 whole entry): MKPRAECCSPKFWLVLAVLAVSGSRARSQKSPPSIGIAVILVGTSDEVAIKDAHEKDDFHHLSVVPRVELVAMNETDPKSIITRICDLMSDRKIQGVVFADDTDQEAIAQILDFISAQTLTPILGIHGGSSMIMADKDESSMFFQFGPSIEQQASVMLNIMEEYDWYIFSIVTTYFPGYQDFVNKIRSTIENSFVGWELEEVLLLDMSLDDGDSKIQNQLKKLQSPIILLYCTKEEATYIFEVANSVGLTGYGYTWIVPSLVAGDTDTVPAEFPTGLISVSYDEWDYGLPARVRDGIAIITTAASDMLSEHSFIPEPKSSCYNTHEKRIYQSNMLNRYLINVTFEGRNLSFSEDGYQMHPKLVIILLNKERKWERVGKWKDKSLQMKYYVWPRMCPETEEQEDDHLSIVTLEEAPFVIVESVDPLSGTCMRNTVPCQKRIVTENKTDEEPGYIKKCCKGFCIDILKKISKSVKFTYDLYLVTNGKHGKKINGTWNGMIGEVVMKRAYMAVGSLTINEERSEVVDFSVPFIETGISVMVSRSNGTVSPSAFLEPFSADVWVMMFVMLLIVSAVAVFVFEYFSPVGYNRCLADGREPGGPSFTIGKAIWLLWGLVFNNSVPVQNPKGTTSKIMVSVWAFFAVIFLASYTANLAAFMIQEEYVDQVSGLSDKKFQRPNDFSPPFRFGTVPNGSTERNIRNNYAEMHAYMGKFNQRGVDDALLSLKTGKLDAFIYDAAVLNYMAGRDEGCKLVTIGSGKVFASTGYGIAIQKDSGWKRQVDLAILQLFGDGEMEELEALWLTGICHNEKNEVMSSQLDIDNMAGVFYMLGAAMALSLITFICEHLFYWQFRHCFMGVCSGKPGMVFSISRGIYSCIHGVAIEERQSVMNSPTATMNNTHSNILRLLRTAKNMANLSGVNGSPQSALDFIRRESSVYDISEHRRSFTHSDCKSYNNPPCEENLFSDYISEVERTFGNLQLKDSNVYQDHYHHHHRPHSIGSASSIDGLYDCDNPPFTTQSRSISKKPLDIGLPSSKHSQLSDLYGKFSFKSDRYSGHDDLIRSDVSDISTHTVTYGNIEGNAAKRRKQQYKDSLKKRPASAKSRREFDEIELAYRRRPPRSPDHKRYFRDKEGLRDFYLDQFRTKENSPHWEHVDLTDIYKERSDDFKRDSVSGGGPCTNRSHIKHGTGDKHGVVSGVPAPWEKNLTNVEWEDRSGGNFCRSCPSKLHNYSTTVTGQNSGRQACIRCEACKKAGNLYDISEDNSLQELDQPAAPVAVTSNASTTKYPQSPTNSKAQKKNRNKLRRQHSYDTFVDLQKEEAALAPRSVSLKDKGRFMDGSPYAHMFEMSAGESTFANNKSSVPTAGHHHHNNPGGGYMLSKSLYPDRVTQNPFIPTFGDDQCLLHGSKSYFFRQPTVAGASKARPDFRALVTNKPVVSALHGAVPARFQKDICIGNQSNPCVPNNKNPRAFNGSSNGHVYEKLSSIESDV

Row | Ki [1] [nM] | Ki [2] [nM] | inhibition [3] [%] | Ki [4] [nM] | Structure (SMILES)
1 | 16 |  |  |  | COc1ccc2c(c1)CC[C@H](NCCCc1ccccc1)C[C@@H]2O (relative stereo)
2 | 17 | 54 | 2 | 14 | FC(CNC1CCc2ccccc2CC1)Cc1ccccc1 (stereo not given)
3 | 11 |  |  |  | COc1ccc2c(c1)CCC(NCCCc1ccccc1)CC2 (stereo not given)
4 | 27 | 82 | 3 | 19 | FC(CCc1ccccc1)CNC1CCc2ccccc2CC1 (stereo not given)
